From patent US11891634B2, “PDE5A destabilizing domains” (The Board of Trustees of the Leland Stanford Junior …, priority 2017, dated 2024)

Assays:
Type in all cases: cell-based, human
[1] = tested on: HCT 116 cells transduced with the PDE5A DD derived GFP constructs; experiment: Response to Vardenafil, GFP expression by FACS in HCT116; settings: for MFI / Stabilization ratio with Vardenafil: 48 hours, HCT116
Method: (§1) Mutations were created in PDE5A (535-860) catalytic domain using site directed mutagenesis and the mutants were cloned as AcGFP fusion into pELNS vector carrying mCherry marker and packaged in lentiviral vectors. HCT116 cells were transduced with the constructs and stable integrants were selected by cell sorting using mCherry marker. Cells were treated with vehicle (dimethyl sulfoxide, DMSO) or 10 μM Vardenafil (VDF) for 48 hours. Following the treatment, cells were analyzed for GFP expression using FACS. Basal expression was calculated as the ratio of GFP signal in the absence of ligand for a given cell line to auto fluorescence of parental HCT-116 cells. Stabilization ratio was calculated as the ratio of the GFP signal observed in the presence of stabilizing ligand to the signal from the same cell line in the absence of ligand.
HCT 116 cells transduced with the PDE5A DD derived GFP constructs were also tested with increasing doses of Vardenafil. The HCT116 cells were incubated for 48 hours with Vardenafil starting at a dose of 0.002 μM to 30 μM. The GFP intensity of the Vardenafil treated samples was compared to the parental untransduced HCT116 and DMSO treated cells for each construct. The mean fluorescence intensity was calculated for each sample and used to calculate the stabilization ratios as well as the basal expression for each construct. The GFP expression was measured using flow cytometry and the mean fluorescence intensity (MFI) was calculated for each sample. The stabilization ratios are shown in Table 13 and Table 14 and the basal expression is show in Table 15.

[2] = tested on: HCT 116 cells transduced with the PDE5A DD derived GFP constructs; experiment: Response to Tadalafil, GFP expression by FACS in HCT116; settings: for MFI / Stabilization ratio with Tadalafil: 48 hours, HCT116
Method: as §1, with “PDE5AN (#3) was” for “Mutations were created in PDE5A (535-860) catalytic domain using site directed mutagenesis and the mutants were”, “construct” for “constructs”, “varying doses of Tadalafil (TDF)” for “10 μM Vardenafil (VDF)”, “hrs with doses ranging from 0.01 μM to 100 μM.” for “hours.”
HCT 116 cells transduced with the PDE5A DD derived GFP constructs were also tested with increasing doses of Tadalafil. The HCT116 cells were incubated for 48 hours with Tadalafil starting at dose 0.01 μM to 100 μM. The GFP intensity of the Tadalafil treated samples was compared to the parental untransduced HCT116 and DMSO treated cells for each construct. The mean fluorescence intensity was calculated for each sample and used to calculate the stabilization ratios as well as the basal expression for each construct. The stabilization ratios are shown in Table 19 and Table 20 and the basal expression is show in Table 21.

[3] = tested on: HCT116 cells transduced with the constructs; experiment: Response to Sildenafil, GFP expression by flow cytometry in HCT116; settings: for MFI / Stabilization ratio with Sildenafil: 48 hours, HCT116
Method: Similar experiments were performed in HCT116 cells using sildenafil. The above-mentioned DDs were cloned as AcGFP fusion into pELNS vector carrying mCherry marker and packaged in lentiviral vectors. HCT116 cells were transduced with the constructs and stable integrants were selected by cell sorting using mCherry marker. Cells were treated with sildenafil at the following μM concentrations: 0.01, 0.02, 0.05, 0.14, 0.41, 1.23, 3.7, 11.11, 33.33, and 100 for a duration of 48 hours. The fluorescence was analyzed by flow cytometry and the mean fluorescence intensity was calculated for all samples. […] The stabilization ratios are shown in Table 24 and Table 25 and the basal expression is show in Table 26.

PDE5AC (#13): AcGFP fused to C-terminal DD 535-860 of PDE5A (Q589R, Y676D, L738H), SEQ ID NO. 24
MFI ([1]; DMSO (no Vardenafil)): 14659 | Basal (DMSO/Parental) ([1]; Table 10, GFP signal without ligand / auto fluorescence of parental HCT-116): 11.3 | Basal ([1]; Table 15, MFI with DMSO / parental HCT116, Vardenafil experiment): 7.50 | Stabilization ratio with Vardenafil ([1]; Vardenafil 0.002 μM vs DMSO): 1.3 | MFI ([1]; Vardenafil 0.002 μM): 18393 | MFI ([1]; Vardenafil 0.005 μM): 27661 | Stabilization ratio with Vardenafil ([1]; Vardenafil 0.014 μM vs DMSO): 4.1 | MFI ([1]; Vardenafil 0.014 μM): 59673 | Stabilization ratio with Vardenafil ([1]; Vardenafil 0.041 μM vs DMSO): 5.3 | MFI ([1]; Vardenafil 0.041 μM): 78117 | Stabilization ratio with Vardenafil ([1]; Vardenafil 0.123 μM vs DMSO): 6.0 | MFI ([1]; Vardenafil 0.123 μM): 88571 | Stabilization ratio with Vardenafil ([1]; Vardenafil 0.370 μM vs DMSO): 6.8 | MFI ([1]; Vardenafil 0.370 μM): 99160 | Stabilization ratio with Vardenafil ([1]; Vardenafil 1.111 μM vs DMSO): 6.8 | MFI ([1]; Vardenafil 1.111 μM): 99377 | Stabilization ratio with Vardenafil ([1]; Vardenafil 3.333 μM vs DMSO): 7.2 | MFI ([1]; Vardenafil 3.333 μM): 105500 | Stabilization ratio with Vardenafil ([1]; Vardenafil 10 μM vs DMSO): 6.7 | MFI ([1]; Vardenafil 10 μM): 97493 | Stabilization ratio with Vardenafil ([1]; Vardenafil 30 μM vs DMSO): 7.2 | MFI ([1]; Vardenafil 30 μM): 105335 | MFI ([2]; DMSO (no Tadalafil)): 14416 | Basal expression ([2]; Table 21, MFI with DMSO / parental HCT116, Tadalafil experiment): 11.26 | Stabilization ratio with Tadalafil ([2]; Tadalafil 0.01 μM vs DMSO): 1.0 | MFI ([2]; Tadalafil 0.01 μM): 14388 | Stabilization ratio with Tadalafil ([2]; Tadalafil 0.02 μM vs DMSO): 1.0 | MFI ([2]; Tadalafil 0.02 μM): 14908 | Stabilization ratio with Tadalafil ([2]; Tadalafil 0.05 μM vs DMSO): 1.1 | MFI ([2]; Tadalafil 0.05 μM): 16488 | MFI ([2]; Tadalafil 0.14 μM): 21292 | Stabilization ratio with Tadalafil ([2]; Tadalafil 0.41 μM vs DMSO): 2.3 | MFI ([2]; Tadalafil 0.41 μM): 33396 | Stabilization ratio with Tadalafil ([2]; Tadalafil 1.23 μM vs DMSO): 4.1 | MFI ([2]; Tadalafil 1.23 μM): 58867 | Stabilization ratio with Tadalafil ([2]; Tadalafil 3.7 μM vs DMSO): 5.7 | MFI ([2]; Tadalafil 3.7 μM): 81755 | Stabilization ratio with Tadalafil ([2]; Tadalafil 11.11 μM vs DMSO): 6.4 | MFI ([2]; Tadalafil 11.11 μM): 92484 | Stabilization ratio with Tadalafil ([2]; Tadalafil 33.33 μM vs DMSO): 6.7 | MFI ([2]; Tadalafil 33.33 μM): 96959 | Stabilization ratio with Tadalafil ([2]; Tadalafil 100 μM vs DMSO): 7.3 | MFI ([2]; Tadalafil 100 μM): 105048 | MFI ([3]; DMSO (no Sildenafil)): 15122 | Stabilization ratio with Sildenafil ([3]; Sildenafil 0.01 μM vs DMSO): 1.0 | MFI ([3]; Sildenafil 0.01 μM): 14787 | Stabilization ratio with Sildenafil ([3]; Sildenafil 0.02 μM vs DMSO): 1.1 | MFI ([3]; Sildenafil 0.02 μM): 17318 | MFI ([3]; Sildenafil 0.05 μM): 26905 | Stabilization ratio with Sildenafil ([3]; Sildenafil 0.14 μM vs DMSO): 3.2 | MFI ([3]; Sildenafil 0.14 μM): 48611 | Stabilization ratio with Sildenafil ([3]; Sildenafil 0.41 μM vs DMSO): 4.6 | MFI ([3]; Sildenafil 0.41 μM): 69042 | Stabilization ratio with Sildenafil ([3]; Sildenafil 1.23 μM vs DMSO): 5.6 | MFI ([3]; Sildenafil 1.23 μM): 84772 | Stabilization ratio with Sildenafil ([3]; Sildenafil 3.70 μM vs DMSO): 5.5 | MFI ([3]; Sildenafil 3.70 μM): 82519 | Stabilization ratio with Sildenafil ([3]; Sildenafil 11.11 μM vs DMSO): 6.1 | MFI ([3]; Sildenafil 11.11 μM): 92732 | Stabilization ratio with Sildenafil ([3]; Sildenafil 33.33 μM vs DMSO): 6.2 | MFI ([3]; Sildenafil 33.33 μM): 93336 | Stabilization ratio with Sildenafil ([3]; Sildenafil 100.00 μM vs DMSO): 5.0 | MFI ([3]; Sildenafil 100.00 μM): 76090 | Basal expression ([3]; Table 26, MFI with DMSO / parental HCT116, Sildenafil experiment): 11.7
